*1 amine or outer side, *2 acyl side, *3 side chain or, on linkers, in order; H or OH if unused. Where a SMILES comes first, the peptide text is derived from it. Bridges are numbered along the chain shown (N, C = ends). [ ]: non-standard residue; d: D form. The star is where a group is joined. Phe(3-OMe,4-CONHMs) = COc1cc(C[C@H](N)C(=O)O)ccc1C(=O)NS(C)(=O)=O; dhPhe(4-CONHMe,3-OMe) = CNC(=O)c1ccc(CC[C@@H](N)C(=O)O)cc1OC; Phe(3-OMe,4-CONHMe) = CNC(=O)c1ccc(C[C@H](N)C(=O)O)cc1OC; NMePhe(3-Cl) = CN[C@@H](Cc1cccc(Cl)c1)C(=O)O; Tyr(3-OMe) = COc1cc(C[C@H](N)C(=O)O)ccc1O; X9 = O=C([C@@H](CN[*:1])COCCO)[*:2]; NMeF = CN[C@@H](Cc1ccccc1)C(=O)O; NMeGABA = CN(CCCC(=O)[*:2])[*:1]; Butyl(3-Me,3-OH) = CC(C)(O)CC*; CH2CH(OH)CF3 = OC(C*)C(F)(F)F; NMeL = CN[C@@H](CC(C)C)C(=O)O; NMeV = CN[C@H](C(=O)O)C(C)C; NMeAbu = CC[C@H](NC)C(=O)O; NMeA = CN[C@@H](C)C(=O)O; Piperidide = C1CCN(*)CC1; Abu = CC[C@H](N)C(=O)O; NBuGly = CCCCNCC(=O)O; NPrGly = CCCNCC(=O)O; Sar = CNCC(=O)O; tBu = CC(C)(C)*
test: in vitro; conditions: human, Caco-2, Caco-2 (cm/sec)

**Q.** Which Papp does the source give for `CC[C@H](C)[C@@H]1NC(=O)[C@H](CC(C)C)N(C)C(=O)CCCN(C)C(=O)C[C@@H](C(=O)N2CCCCC2)NC(=O)[C@H](CC(C)C)N(C)C(=O)[C@H](CC(C)C)N(C)C(=O)[C@H]([C@@H](C)O)NC(=O)[C@H](CC(C)C)N(C)C(=O)[C@H](Cc2ccc(O)cc2)NC(=O)[C@H](CC(C)C)N(C)C(=O)[C@H](Cc2ccccc2)N(C)C1=O` [Compound F03] ([NMeGABA][NMeL]I[NMeF][NMeL]Y[NMeL]T[NMeL][NMeL]D-Piperidide; lactam N-11) here?
**A.** 0.13 ×10⁻⁶ cm/s

**Q.** For `CC[C@H](C)[C@@H]1NC(=O)[C@H](C(C)C)N(C)C(=O)CCCN(C)C(=O)C[C@@H](C(=O)N2CCCCC2)NC(=O)[C@H](CC(C)C)N(C)C(=O)[C@H](CC(C)C)N(C)C(=O)[C@H]([C@@H](C)O)NC(=O)[C@H](CC(C)C)N(C)C(=O)[C@H](COCCC(C)(C)O)NC(=O)[C@H](Cc2cccc(Cl)c2)N(C)C(=O)[C@H](Cc2ccccc2)N(C)C1=O` [AP54] ([NMeGABA][NMeV]I[NMeF][NMePhe(3-Cl)]S(Butyl(3-Me,3-OH))[NMeL]T[NMeL][NMeL]D-Piperidide; lactam N-11), which Papp is on record?
**A.** 1.4 ×10⁻⁶ cm/s

**Q.** With `CCCCN1CC(=O)N(C)[C@@H](Cc2ccccc2)C(=O)N[C@@H]([C@@H](C)CC)C(=O)N(C)[C@@H](CC(C)C)C(=O)N[C@@H]([C@@H](C)O)C(=O)N(CCC)CC(=O)N(C)[C@@H](Cc2ccccc2)C(=O)N(C)[C@@H](CC(C)C)C(=O)NC[C@@H](COCCO)C(=O)N(C)[C@@H](CC(C)C)C(=O)N[C@H](C(=O)N2CCCCC2)CC1=O` [AP134] ([NBuGly][NMeF]I[NMeL]T[NPrGly][NMeF][NMeL][X9][NMeL]D-Piperidide; lactam N-11) as the compound, how does the Papp read?
**A.** 0.62 ×10⁻⁶ cm/s

**Q.** With `CC[C@H](C)[C@@H]1NC(=O)[C@H](CC(C)C)N(C)C(=O)CCCN(C)C(=O)C[C@@H](C(=O)N2CCCCC2)NC(=O)[C@H](CC(C)C)N(C)C(=O)[C@H](CC(C)C)N(C)C(=O)[C@H]([C@@H](C)O)NC(=O)[C@H](CC(C)C)N(C)C(=O)[C@H](Cc2ccc(C(=O)NC)c(OC)c2)NC(=O)[C@H](CC(C)C)N(C)C(=O)[C@H](Cc2ccccc2)N(C)C1=O` [AP30] ([NMeGABA][NMeL]I[NMeF][NMeL][Phe(3-OMe,4-CONHMe)][NMeL]T[NMeL][NMeL]D-Piperidide; lactam N-11) as the compound, how does the Papp read?
**A.** 0.19 ×10⁻⁶ cm/s

**Q.** For `CC[C@H]1C(=O)N[C@@H](Cc2ccc(O)c(OC)c2)C(=O)N(C)[C@@H](CC(C)C)C(=O)N(C)[C@@H](CC(C)C)C(=O)N[C@@H](C(C)C)C(=O)N(C)[C@@H](Cc2ccccc2)C(=O)N(C)[C@@H](CC(C)C)C(=O)N[C@@H]([C@@H](C)O)C(=O)N(C)CC(=O)N(C)[C@@H](CC(C)C)C(=O)N[C@H](C(=O)N2CCCCC2)CC(=O)N1C` [Compound E06] ([NMeAbu][Tyr(3-OMe)][NMeL][NMeL]V[NMeF][NMeL]T[Sar][NMeL]D-Piperidide; lactam N-11), which Papp is on record?
**A.** 0.97 ×10⁻⁶ cm/s

**Q.** With `CC[C@@H]1NC(=O)[C@H](CC(C)C)N(C)C(=O)[C@H](Cc2ccccc2)N(C)C(=O)CN(C)C(=O)[C@H](Cc2ccc(C(=O)NS(C)(=O)=O)c(OC)c2)NC(=O)[C@H](CC(C)C)N(C)C(=O)[C@H](C(C)C)NC(=O)[C@H](CC(C)C)N(C)C(=O)CN(C)C(=O)C[C@@H](C(=O)N2CCCCC2)NC(=O)[C@H](CC(C)C)N(C)C1=O` [AP143] ([Sar][NMeL]V[NMeL][Phe(3-OMe,4-CONHMs)][Sar][NMeF][NMeL][Abu][NMeL]D-Piperidide; lactam N-11) as the compound, how does the Papp read?
**A.** 0.13 ×10⁻⁶ cm/s

**Q.** For `CC(C)C[C@@H]1NC(=O)[C@H](Cc2ccccc2)N(C)C(=O)[C@H](COC(C)(C)C)NC(=O)[C@H](Cc2ccccc2)N(C)C(=O)[C@H](C)N(C)C(=O)[C@H](CC(C)C)N(C)C(=O)[C@@H]2CCCN2C(=O)C[C@@H](C(=O)N2CCCCC2)NC(=O)[C@H](Cc2ccccc2)N(C)C(=O)[C@H]([C@@H](C)O)NC(=O)[C@H](CC(C)C)N(C)C1=O` [pd214] (P[NMeL][NMeA][NMeF]S(tBu)[NMeF]L[NMeL]T[NMeF]D-Piperidide; lactam N-11), which Papp is on record?
**A.** 1.2 ×10⁻⁶ cm/s

**Q.** For `CCCCN1CC(=O)N(C)[C@@H](Cc2ccccc2)C(=O)N(C)[C@@H](CC(C)C)C(=O)N[C@H](CCc2ccc(C(=O)NC)c(OC)c2)C(=O)N(C)[C@@H](CC(C)C)C(=O)N[C@H](C(=O)N2CCCCC2)CC(=O)N(C)CC(=O)N(C)[C@@H](CC(C)C)C(=O)N[C@@H]([C@@H](C)CC)C(=O)N(C)[C@@H](CC(C)C)C(=O)N[C@@H]([C@@H](C)O)C1=O` [AP215] ([Sar][NMeL]I[NMeL]T[NBuGly][NMeF][NMeL][dhPhe(4-CONHMe,3-OMe)][NMeL]D-Piperidide; lactam N-11), which Papp is on record?
**A.** 0.43 ×10⁻⁶ cm/s

same assay, conditions: human, Caco-2, Caco-2 (membrane permeability)

**Q.** With `CC[C@H]1C(=O)N[C@@H](COC(C)(C)C)C(=O)N(C)[C@@H](Cc2ccccc2)C(=O)N(C)[C@@H](CC(C)C)C(=O)N[C@H](C(=O)N2CCCCC2)CC(=O)N[C@H](CC(C)C)C(=O)N(C)[C@@H](Cc2ccccc2)C(=O)N[C@@H](CC(C)C)C(=O)N(C)[C@@H](CC)C(=O)N[C@@H](COCC(O)C(F)(F)F)C(=O)N(C)CC(=O)N1C` (stereo partly drawn) [Compound C10] ([dL][NMeF]L[NMeAbu]S(CH2CH(OH)CF3)[Sar][NMeAbu]S(tBu)[NMeF][NMeL]D-Piperidide; lactam N-11) as the compound, how does the Papp read?
**A.** 0.95 ×10⁻⁶ cm/s

**Q.** With `CCCCN1CC(=O)N(C)[C@@H](CC(C)C)C(=O)N[C@@H](COCC(O)C(F)(F)F)C(=O)N(C)[C@@H](Cc2ccccc2)C(=O)N(C)[C@@H](C(C)C)C(=O)N[C@H](C(=O)N2CCCCC2)CC(=O)N[C@H](C(C)C)C(=O)N(C)[C@@H](Cc2ccccc2)C(=O)N[C@@H](CC(C)C)C(=O)N(C)[C@@H](CC(C)C)C(=O)N[C@@H]([C@@H](C)O)C1=O` (stereo partly drawn) [Compound C09] ([dV][NMeF]L[NMeL]T[NBuGly][NMeL]S(CH2CH(OH)CF3)[NMeF][NMeV]D-Piperidide; lactam N-11) as the compound, how does the Papp read?
**A.** 0.12 ×10⁻⁶ cm/s

From patent publication US20230096766A1, “AMINO ACID HAVING FUNCTIONAL GROUP CAPABLE OF INTERMOLECULAR HYDROGEN BONDING, PEPTIDE COMPOUND CONTAINING SAME AND METHOD FOR PRODUCTION THEREOF” (Chugai Seiyaku Kabushiki Kaisha, priority 2018, published 2023)
